Results on five molecules are retold here after patent publication EP0357495A2, “3'Azido-3'-deoxythymidine (AZT) derivatives active against the AIDS virus” (IRE-CELLTARG S.A., priority 1988, dated 1990).

One series relates to cellules MT4. As to the kind of experiment: cytotoxicity on non-infected MT4 cells (MTT method). It counts as cell-based. Particulars: for toxicité (compared with AZT, in words): comparison with AZT. The protocol: (§1) Les produits (AZT, AZT-5′ hémisuccinyl et AZT 5′-leucyl) à différentes concentrations ont été mis en présence de cellules MT4 (4 X 10⁴ cellules par puits de microtray) infectées ou non avec 100 CCID₅₀ de virus HIV-1 (souche HTLV-IIIB). La CCID₅₀ représente la quantité de virus à rajouter pour obtenir une infection de 50 % des cellules (dose infectieuse de cellules en culture 50).
(§2) Après cinq jours d'incubation à 37°C, le nombre de cellules vivantes a été déterminé par la méthode au MTT, basée sur la réduction par les cellules vivantes du 3′-(4, 5-diméthylthiazol-2-yl)-2,5-diphényltétrazoliumbromide, jaune, en formazan, bleu. L'activité antivirale et la cytotoxicité sont exprimées sous forme de ED₅₀ et de CD₅₀. La CD₅₀ représente la dose qui tue 50 % des cellules non infectées et la ED₅₀ représente la dose qui protège 50 % des cellules de l'infection virale.
(§3) En effet l'AZT entre en compétition avec la thymidine au niveau des enzymes de phosphorylation qui vont le transformer en AZT triphosphate (AZT TP) qui est la forme active du produit. Un excès de thymidine réduit donc très fortement l'activité de l'AZT, ce qui se traduit par une ED₅₀ plus élevée. Par conséquent, si le dérivé de l'AZT doit son activité à la libération d'AZT qui à son tour est phosphorylé en AZT TP, un excès de thymidine aura également pour effet d'élever la ED₅₀ du dérivé. La thymidine étant cytotoxique à la concentration utilisée, il est nécessaire de rajouter de la 2′déoxycytidine pour empêcher cette toxicité.
(§4) Les protocoles expérimentaux sont ceux décrits à l'exemple 9 3.1) et 9 3).

Series [1] deals with virus HIV-1 (souche HTLV-IIIB). As to the kind of experiment: anti-HIV activity in HIV-infected MT4 cells (MTT method). Type of series: cell-based. The note with it: for activité (compared with AZT, in words): comparison with AZT. The protocol:
as §1, §2
as §3, with “La même expérience que celle décrite ci-avant (exemple 9.1)) a été réalisée, mais en présence de thymidine 250 µM et de 2′déoxycytidine 500 µM. En” for “En”
as §4
(Tetrazolium assays rely on reduction of a dye to a coloured formazan, in cell work by metabolically active cells.)

Series [2] in a line: in vivo toxicity, intraperitoneal, 5-day-old NMRI mice. Also on record: species or system souriceaux NMRI. Particulars: AZT, i.p. On the procedure: L'AZT et son dérivé 5′hémisuccinyl ont été administrés par voie infra-péritonéale à de souriceaux NMRI âgés de 5 jours (100 µl/g de poids corporel). Les animaux ont été contrôlés tous les jours selon 2 critères : survie et poids pendant 25 jours.
Les résultats sont repris au tableau 9. Les souriceaux traités n'ont pas montre de différence significative dans la prise de poids par rapport aux contrôles. Tableau 9

Another series deals with HIV. The note with it: patients at AIDS stage, estimate; cited from earlier work.
The test system of series [3] is virus HIV-1 (souche HTLV-IIIB). As to the kind of experiment: viral antigen expression in HIV-infected HUT-78 cells (indirect immunofluorescence, laser cytofluorescence). Type of series: cell-based. An excerpt:
Les produits (AZT et AZT-5′ hémisuccinyl) à différentes concentrations ont été mis en présence de cellules HUT-78 infectées par le virus HIV-1 (souche HTLV-IIIB) à une multiplicité d'infection de 0.4. Tous les quatre jours, 3/4 du milieu ont été remplacés par du milieu frais. Après douze jours, l'expression des antigènes viraux a été mesurée par immunofluorescence indirecte à l'aide d'un sérum anti-HIV-I positif, et par cytofluorescence laser, tel que décrit par Pauwels et al. J. Virol. Meth. 16, 171-185 (1987).
Des résultats sont exprimés dans le tableau 3 en ED₅₀ et en pourcentage d'effet protecteur selon la formule : [formula] TABLEAU 3

In series [4] the test system is virus MSV Moloney sarcoma virus. Briefly: in vivo activity in MSV-infected NMRI mice (survival, tumour appearance). Also on record: species or system souris NMRI. The protocol: L'AZT et ses dérivés selon l'invention ont été testés in vivo chez la souris NMRI (souriceaux de 2 jours) infectée par le virus MSV Moloney sarcoma virus). La drogue est adminitrée i.p. pendant 5 jours dans un volume de 25 µl/g de poids corporel. Le virus est inoculé dans la cuisse gauche de l'animal deux heures après la première administration de drogue. Les animaux sont contrôlés tous les jours selon trois critères : survie, apparition de la tumeur et poids (toxicité) pendant 50 jours. Les résultats sont repris au tableau 7 et dans les figures 8 à 11. [formula]
On entend par temps médian de survie le temps où la moitié des souris sont encore vivantes. [formula] Tableau 7

Series [5] concerns virus HIV-1 (souche HTLV-IIIB). Briefly: viral antigen assay in HIV-infected human peripheral blood lymphocytes. Type of series: cell-based. The note with it: day 14 of culture. The source says: Les lymphocytes ont été extraits d'un concentré plaquettaire par séparation sur gradient de Ficoll et élimination des adhérentes. Après 3 jours de stimulation par la phytohémaglutinine, ils ont été transférés dans un milieu additionné d'interleukine-2 (IL-2) est infectés par le virus HIV-1 (souche HTLV-IIIB). L'AZT et son dérivé 5′ hémisuccinate à différentes concentrations ont été rajoutés aux cellules au moment de l'infection.
Trois jours après l'infection, le milieu a été remplacé par du milieu frais additionné d'IL-2, contenant les produits aux concentrations désirées pour la moitié des cellules, et ne contenant plus de produit pour l'autre moitié. Ensuite, le milieu des cellules a été remplacé à moitié par du milieu frais additionné d'IL-2, contenant ou non les produits aux concentrations désirées, tous les 3 à 4 jours.
La multiplication du virus a été suivie par dosage des antigènes viraux dans les surnageants de culture (Innotest HIV-Organon Teknika).

Where [6] appears, read: tableau 6, MT-4, with thymidine(250 µM) + déoxy-cytidine (500 µM).
Where [7] appears, read: tableau 6, MT-4, without thymidine / déoxy-cytidine.
The mark [8] stands for this setting: listed as dérive 5′-valine de l'AZT.
[9] abbreviates: tableau 2, non-infected MT4 cells, 5 days at 37°C, dose that kills 50 % of cells.
Setting [10] is: tableau 4, MT-4, without thymidine / 2′déoxycytidine.

Several values for one entry are separate records, joined by “and”; a condition that tells them apart may be missing. Equal values may be shown once. Where only a bound is given, the exact number is not on record here.

For the molecule `Cc1cn([C@H]2C[C@H](N=[N+]=[N-])[C@@H](COC(=O)[C@@H](NC(=O)OC(C)(C)C)C(C)C)O2)c(=O)[nH]c1=O` [AZT 5′tBoc valyl, 5′-O-(Boc-L-valyl)-3′-azido-3′-deoxythymidine], the “toxicité (compared with AZT, in words)” value in the series with cellules MT4 is listed as “moins toxiques que l'AZT”. Also, the CD₅₀ was 358 µM in the series on cellules MT4 (setting [6]) and 420 µM in the series on cellules MT4 (setting [7]). The “activité (compared with AZT, in words)” value in series [1] is given as “activités comparables”. In addition, the results for the ED₅₀ in series [1] (setting [6]) and in series [1] (setting [7]) were 11.002 µM and 0.0731 µM, respectively. For the same molecule, the results for the SI in series [1] (setting [6]) and in series [1] (setting [7]) were 33 and 5740, respectively.
As to `Cc1cn([C@H]2C[C@H](N=[N+]=[N-])[C@@H](COC(=O)[C@@H](N)C(C)C)O2)c(=O)[nH]c1=O` [AZT 5′valyl, 5′-O-(L-valyl)-3′-azido-3′-deoxythymidine], the “toxicité (compared with AZT, in words)” value with cellules MT4 (listed as AZT-5′valine) is reported as “comparable à celle de ce dernier”; in the series on cellules MT4 (setting [8]) it was “comparable à celle de l'AZT”. Besides, the CD₅₀ turned out to be 38.16 µM in the series on cellules MT4 (setting [6]) and 3.65 µM in the series on cellules MT4 (setting [7]). In addition, the “activité (compared with AZT, in words)” value in series [1] (listed as AZT-5′valine) was “deux foix plus élevée que celle de l'AZT”; in series [1] (setting [8]), “plus actif que l'AZT”. For the same molecule, the ED₅₀ in series [1] (setting [6]) was 0.0987 µM; in series [1] (setting [7]) it was 0.0007 µM. The values for the SI in series [1] (setting [6]) and in series [1] (setting [7]) were 386 and 5083, respectively.
`Cc1cn([C@H]2C[C@H](N=[N+]=[N-])[C@@H](CO)O2)c(=O)[nH]c1=O` [AZT, 3′azido-3′déoxythymidine, reference compound]: the “Survivants au jour 25” value in series [2] (dose 1 g/kg poids corporel (équivalent AZT 1)) and in series [2] (dose 2 g/kg poids corporel (équivalent AZT 2)) was 0% in each case. Besides, the CD₅₀ with cellules MT4 (setting [9]) was 15.8 µM and 14.2 µM; with cellules MT4 (setting [10]) it was 5.06 µM; with cellules MT4 (setting [7]), 5,06 µM. Further, the “augmentation du temps de survie des patients traités” value with HIV is recorded as approximately 18 mois. Also, the “Pourcentage d'effet protecteur” value in series [3] (HUT-78, day 12, concentration 0.2 µM) was found to be 36%; in series [3] (HUT-78, day 12, concentration 1 µM), 45%; in series [3] (HUT-78, day 12, concentration 5 µM), 65%. The ED₅₀ entry in series [3] (HUT-78 cells, multiplicity of infection 0.4, day 12) is reported as “ED₅₀ AZT = 2 µM”; in series [1] (setting [10]), 0,0018 µM; in series [1] (setting [7]) it was 0.0018 µM; in series [5] (durée d'administration 3 jours), 0.03 µM; in series [5] (durée d'administration 14 jours), 0.023 µM. Further, the “indice de sélectivité” value in series [1] (de l'ordre de) is given as approximately 6000. Also, the SI in series [1] (setting [10]) and in series [1] (setting [7]) was 2780 each time. For the same molecule, the “% ILS” value in series [4] (AZT 5 mg/kg/jour i.p. 5 days) came out at 26.8%; in series [4] (AZT 25 mg/kg/jour i.p. 5 days) it was 74.8%; in series [4] (AZT 125 mg/kg/jour i.p. 5 days) it was 74.8%. For the same molecule, the “% ITL” value in series [4] (AZT 5 mg/kg/jour i.p. 5 days) was found to be 62.8%; in series [4] (AZT 25 mg/kg/jour i.p. 5 days), 190%; in series [4] (AZT 125 mg/kg/jour i.p. 5 days) it was 137%. The “Temps moyen d'apparition de la tumeur” value in series [4] (AZT 5 mg/kg/jour i.p. 5 days) is recorded as 6.5 jours; in series [4] (AZT 125 mg/kg/jour i.p. 5 days), 10.2 jours. For the same molecule, the “Temps moyen de survie” value is recorded as 11.3 jours in series [4] (AZT 5 mg/kg/jour i.p. 5 days), more than 19.8 jours in series [4] (AZT 25 mg/kg/jour i.p. 5 days) and more than 23.3 jours in series [4] (AZT 125 mg/kg/jour i.p. 5 days). Also, the “Temps médian d'apparition de la tumeur” value in series [4] (AZT 5 mg/kg/jour i.p. 5 days) was 7.3 jours; in series [4] (AZT 25 mg/kg/jour i.p. 5 days), 13 jours; in series [4] (AZT 125 mg/kg/jour i.p. 5 days), 10.6 jours. Besides, the “Temps médian de survie” value in series [4] (AZT 5 mg/kg/jour i.p. 5 days) turned out to be 11.6 jours; in series [4] (AZT 25 mg/kg/jour i.p. 5 days) it was 16 jours; in series [4] (AZT 125 mg/kg/jour i.p. 5 days), 16 jours.
`CC(=O)N[C@@H](CC(=O)OC[C@H]1O[C@@H](n2cc(C)c(=O)[nH]c2=O)C[C@@H]1N=[N+]=[N-])C(=O)O` [AZT-5′hémiaspartyl (isomère majeur), 5′-O-(N-acétyl-L-hemiaspartyl)-3′-azido-3′ déoxythymidine]: the “toxicité (compared with AZT, in words)” value in the series with cellules MT4 is listed as “moins toxiques que l'AZT”. For the same molecule, the CD₅₀ in the series with cellules MT4 (setting [6]) is on record as 74.83 µM; with cellules MT4 (setting [7]), 65.06 µM. Further, the “activité (compared with AZT, in words)” value in series [1] is listed as “activités comparables”. Further, the “indice de sélectivité (in words)” value in series [1] (comparison with the hémisuccinyl derivative) is “comparable à celui du dérivé hémisuccinyl”. Also, the ED₅₀ in series [1] (setting [6]) was 4.000 µM; in series [1] (setting [7]) it was 0.0161 µM. Besides, the SI in series [1] (setting [6]) was determined as 19; in series [1] (setting [7]) it was 4046.
As for `Cc1cn([C@H]2C[C@H](N=[N+]=[N-])[C@@H](COC(=O)[C@@H](N)CC(C)C)O2)c(=O)[nH]c1=O` [AZT-5′leucyl, 5′O-(L-leucyl)-3′-azido-3′déoxythymidine], in the series with cellules MT4 (setting [9]), the CD₅₀ is reported as 25.4 µM. Further, the ED₅₀ entry in series [1] (tableau 2, MT4 cells infected with 100 CCID₅₀ HIV-1, 5 days at 37°C, dose that protects 50 % of cells) was “.005 µM”. Besides, in series [1] (tableau 2, indice de sélectivité = CD₅₀ sur ED₅₀, MT4 cells), the SI is given as 5080. For the same molecule, the “SI dérivé/SI AZT” value in series [1] (tableau 2, ratio within the same experiment, MT4 cells) is 2.1.
